Results: article PMC5876388 (Scientific Reports, 2018)

Experiments:
[1] = tested on: Notch signaling (LS174T Notch cells); assay: Notch signaling transcriptional activity assay (luciferase reporter, T-REx system); type: cell-based; conditions: Homo sapiens, LS174T, 12 h, read-out: IC50 of Notch signal inhibitory activity (luciferase)
Description: We constructed a cell-based reporter assay with the T-Rex system to evaluate Notch signaling inhibitory activity. Without doxycycline (Dox), the tetracycline repressor (TetR) inhibits the expression of N-terminally FLAG-tagged mouse Notch1(1704–2531), which is 40 aa longer than NICD at the N-terminus. In the presence of Dox, Dox binds to the TetR to release the inhibition of expression of Notch1(1704–2531). Cleavage of Notch1(1704–2531) by γ-secretase generates NICD, which then translocates to the nucleus and forms a heterotrimer with RBP-J driving luciferase transcription (Fig. 2). This assay cells (LS174T Notch cells) was stably incorporated with pGL4.20 luciferase plasmid which has 12 × RBP-J binding site (12 copies of […])-β-globin promoter. Cell viability was measured using a fluorometric microculture cytotoxicity assay. […] The composition of the G. speciosa MeOH extract was partitioned successively with hexane, EtOAc, nBuOH, and water.
Figure 2 The T-REx assay system. Without Dox, expression of Notch1(1704–2531) is suppressed by TetR. The addition of Dox inactivates TetR to initiate expression of Notch1(1704–2531), which is then cleaved by endogenous γ-secretase to form NICD. NICD then translocates to the nucleus and forms a heterotrimer with RBP-J and MAML that binds to a 12× RBP-J binding site to drive luciferase expression. Luciferase activity was detected as Notch signaling pathway activity. Dox: doxycycline, TetR: tetracycline repressor, Luc.: luciferase.
Assay cells (LS174T Notch cells: 2 × 10^4 cells/well) were incubated in a 96-well white plate at 37 °C for 12 h. After incubation, 50 ng/mL Dox was added to each well to induce expression of exogenous Notch1(1704–2531) protein. After incubation at 37 °C for 12 h, the medium was changed to Dox-free medium containing individual samples. Luciferase activity was measured after treatment at 37 °C for 12 h. Cell viability was evaluated by the FMCA method at the same time. These assays were performed in 0.1% DMSO (n = 3). Error bars represent SD.
In a 96-well white plate, Cells (LS174T Notch cells; 2 × 10^4 cells per well) were cultured at 37 °C for 12 h. To express Notch1(1704–2531) protein in the cells, doxycycline (50 ng/mL) was added to each well, and cells were cultured at 37 °C for 12 h. Medium was changed to doxycycline-free medium containing each sample, then cells were incubated with at 37 °C for 12 h. A microplate luminometer (Thermo Fisher Scientific Inc., Waltham, USA) and the Bright-Glo™ Luciferase Assay System (Promega Co., Madison, USA) were used for measurement of Luciferase activity. Fluorometric Microculture Cytotoxicity Assay (FMCA) was used for measurement of cell viability of the sample-treated cells. After incubation of assay cells (2×10^4 cells per well) in a 96-well black plate at 37 °C for 24 h, samples addition was performed at the same time as the luciferase assay. The assay cells were cultures at 37 °C for 12 h. A fluorescence plate reader (Thermo Fisher Scientific Inc., Waltham, USA) was used for determination of cell viability by FMCA.

Cytotoxicity test, FMCA = type: cell-based, human; conditions: human, HEK293 cells, FMCA, read-out: IC50 cytotoxicity 293
Method: (§1) The medium was exchanged to fresh medium with different concentrations of compound and cells were incubated for 72 h.

HEK293 cells = assay: Cytotoxicity test, FMCA; type: cell-based, human; conditions: 72 h
Method: as §1

nicastrin = target: T1, nicastrin (Homo sapiens, UniProt Q92542); assay: Western blot in HPB-ALL cells; type: cell-based
T1 construct: endogenous in cells; host or cells: HPB-ALL
T1 sequence (Q92542 34-709): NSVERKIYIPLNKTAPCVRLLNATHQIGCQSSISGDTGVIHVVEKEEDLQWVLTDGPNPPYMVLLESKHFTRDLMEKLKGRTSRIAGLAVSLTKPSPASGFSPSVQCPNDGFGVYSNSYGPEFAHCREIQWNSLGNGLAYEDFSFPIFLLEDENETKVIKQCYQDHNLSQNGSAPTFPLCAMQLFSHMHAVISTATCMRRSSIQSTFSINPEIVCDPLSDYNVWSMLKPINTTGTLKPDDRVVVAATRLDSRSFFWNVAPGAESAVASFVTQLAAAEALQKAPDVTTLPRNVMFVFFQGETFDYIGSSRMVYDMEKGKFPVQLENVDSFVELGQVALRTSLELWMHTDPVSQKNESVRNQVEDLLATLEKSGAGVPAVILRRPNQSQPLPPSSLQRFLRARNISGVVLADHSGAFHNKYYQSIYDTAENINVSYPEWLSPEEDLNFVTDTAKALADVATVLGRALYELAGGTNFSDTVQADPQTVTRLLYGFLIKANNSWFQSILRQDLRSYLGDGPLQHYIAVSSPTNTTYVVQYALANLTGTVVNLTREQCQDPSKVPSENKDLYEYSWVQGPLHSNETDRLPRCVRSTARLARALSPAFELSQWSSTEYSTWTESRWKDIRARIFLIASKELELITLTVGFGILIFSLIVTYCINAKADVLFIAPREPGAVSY
Method: (§2) (A) Schematic representation of γ-secretase complex. γ-Secretase is composed of four membrane proteins: presenilin1 (PS1), nicastrin (NCT), anterior pharynx defective 1 (APH-1) and presenilin enhancer 2 (PEN-2). […] (E,F) Relative protein levels of nicastrin mature and immature analyzed by densitometry. […] P values were analyzed by Student’s t test.
(§3) Media also contained different concentrations of compound. Cells were incubated at 37 °C for 72 h (12 h, when treatment with MG132). After incubation, cells were centrifuged and collected, and then washed with 500 μL of PBS twice. To prepare cell lysate and confirm protein expression levels, the same method as described above was used.

APH-1 = assay: Western blot in HPB-ALL cells; type: cell-based, human; conditions: 72 h
Method: as §2, §3

PEN-2 = assay: Western blot in HPB-ALL cells; type: cell-based, human; conditions: 72 h
Method: as §2, §3

PS1 = assay: Western blot in HPB-ALL cells; type: cell-based, human; conditions: 72 h
Method: as §2, §3

IC50 [1]: 2400 nM
nicastrin levels (nicastrin; 72 h, Western blot): reduced
decrease in nicastrin expression with proteasome inhibitor MG132 (nicastrin; cowanin 15 μM + MG132 5 μM, 12 h): not so marked
Structure (SMILES): COc1c(O)cc2oc3cc(O)c(CC=C(C)C)c(O)c3c(=O)c2c1C/C=C(\C)CCC=C(C)C [Compound 2, cowanin]
IC50 at 72 h (Cytotoxicity test, FMCA): 15.1 µM
viability of normal human embryonic kidney 293 cells (HEK293 cells; 10 μM): not affected
cytotoxicity on 293 cells (HEK293 cells; 20 μM): cytotoxicity was detected
immature versus mature nicastrin (nicastrin; 15 μM, 12 h, densitometry): decreased immature nicastrin stronger than mature nicastrin
expression of APH-1 (APH-1): didn’t affect
expression of PEN-2 (PEN-2): didn’t affect
expression of PS1 (PS1): didn’t affect
